Legend:
[1] = system: wild type neonatal mouse cardiomyocytes (NMCMs); experiment: Gene expression (qPCR) in cultured wild type neonatal mouse cardiomyocytes after treatment; format: cell-based; conditions: for expression of mitosis regulating genes / Wee1 gene expression / expression of clock (circadian) genes: wild type NMCMs; for expression of mitosis regulating genes: norepinephrine 1 μM (FIG. 4C); for Wee1 gene expression: norepinephrine 1 μM (FIG. 5E); for expression of clock (circadian) genes: reset with 50% serum, norepinephrine 1 μM, after 48 hrs of treatment (FIG. 4B)
Experimental: Cardiomyocytes were isolated from P0 or P1 mouse hearts using a neonatal cardiomyocyte isolation kit (Miltenyi Biotec) based on manufacturer's instructions. Before plating, cardiomyocytes were filtered through a 70 μm mesh and single cells were cultured in 24-well plates coated with gelatin. The cells were first maintained in 5% fetal bovine serum (FBS) in DMEM with Pen/Strep antibiotics for 24 hours and subsequently treated for at least 2 hours with 50% horse serum in DMEM and then for 2 days with 5% FBS in DMEM. Cardiomyocytes were treated with Norepinephrine (1 μM) (Sigma) or Nerve Growth Factor (NGF, 20 ng/ml) (PeproTech) as indicated.
RNA was isolated from mouse hearts and cultured cardiomyocytes using Trizol, and cDNA was generated using the high-capacity cDNA reverse transcription kit (Applied Biosystems). qPCR reactions were performed using the Sybr Select qPCR mix (Thermo Fisher) with indicated primers. Gene expression levels were normalized to Gapdh or Rpl32.

[2] = system: Per1/Per2 DKO neonatal mouse cardiomyocytes; experiment: Gene expression (qPCR) in cultured cardiomyocytes from Per1/Per2 DKO neonatal mouse hearts after treatment; format: cell-based; conditions: for expression of cell cycle / mitosis regulating genes: norepinephrine 1 μM (FIG. 4C); for Wee1 gene expression: norepinephrine 1 μM (FIG. 5E)
Source text: Sm22a-Cre (017491) and C57BL/6 mice were obtained from Jackson Lab. NGF +/− mice, Per1/Per2 DKO mice, and Mesp1-Cre mice were as described elsewhere (see, e.g., Wheeler et al., Neuron, 82: 587-602 (2014); Muller et al., J. Neurosci., 32: 14885-14898 (2012); and Saga et al., Development, 126: 3437-3447 (1999)). The animals were randomly allocated to experimental groups and both male and female mice were equally used in all experimental assays. All mouse hearts and cardiomyocytes were harvested at random times during the day unless specified otherwise. Cardiomyocytes were isolated from P0 or P1 mouse hearts using a neonatal cardiomyocyte isolation kit (Miltenyi Biotec) based on manufacturer's instructions. Before plating, cardiomyocytes were filtered through a 70 μm mesh and single cells were cultured in 24-well plates coated with gelatin. The cells were first maintained in 5% fetal bovine serum (FBS) in DMEM with Pen/Strep antibiotics for 24 hours and subsequently treated for at least 2 hours with 50% horse serum in DMEM and then for 2 days with 5% FBS in DMEM. Cardiomyocytes were treated with Norepinephrine (1 μM) (Sigma) or Nerve Growth Factor (NGF, 20 ng/ml) (PeproTech) as indicated. RNA was isolated from mouse hearts and cultured cardiomyocytes using Trizol, and cDNA was generated using the high-capacity cDNA reverse transcription kit (Applied Biosystems). qPCR reactions were performed using the Sybr Select qPCR mix (Thermo Fisher) with indicated primers. Gene expression levels were normalized to Gapdh or Rpl32.

Row | Compound | cell cycle gene expression ([1]; ex vivo treatment of NMCMs with NGF 20 ng/ml (FIG. 9E)) | expression of cell cycle / mitosis regulating genes [2] | expression of cell cycle / mitosis regulating genes ([2]; listed as norepinephrine) | Wee1 gene expression [2] | Wee1 gene expression ([2]; listed as norepinephrine) | expression of mitosis regulating genes [1] | expression of mitosis regulating genes ([1]; listed as norepinephrine) | Wee1 gene expression [1] | Wee1 gene expression ([1]; listed as norepinephrine) | expression of clock (circadian) genes [1] | expression of clock (circadian) genes ([1]; listed as norepinephrine)
1 | NGF: Nerve Growth Factor (PeproTech), used at 20 ng/ml on neonatal mouse cardiomyocytes | did not affect cell cycle gene expression |  |  |  |  |  |  |  |  |  | 
2 | NC[C@H](O)c1ccc(O)c(O)c1 [Norepinephrine] |  | failed to suppress mitosis regulating genes apart from Aurkb | no significant effect on cell cycle genes apart from Aurkb | this effect was not observed in Per1/Per2 DKO cardiomyocytes | this effect was not observed in the absence of Per1/Per2 | decreased the expression of mitosis regulating genes | suppressed mitosis genes | induced Wee1 gene expression | induces Wee1 expression | induces the expression of circadian genes | induced Per1 and Per2 as well as Cryptochrome1 (Cry1) and Cry2 genes

Source: patent US20250066778A1, “METHODS AND MATERIALS FOR TREATING HEART ATTACK” (THE JOHNS HOPKINS UNIVERSITY, priority 2022, published 2025)
